The values that follow come from patent publication US11667666B2, “Methods and compositions for treatment of cancer” (CFD Research Corporation, priority 2020, dated 2023).

This experiment deals with PANC-1 cells. Put plainly: Cell Titer-Glo luminescent cell viability assay, in vitro compound screening against pancreatic cancer cell lines. The format is cell-based. The following applies: 24 and 48-hour post dosing; 10 nM, 100 nM, 1 μM, 10 μM, and 100 μM; n=4. How it is done: In vitro compound screening against pancreatic cancer cell lines for IC50 determination. […] ASPC-1, BXPC-3, MIA-PaCa-2, and PANC-1 cell lines were obtained from ATCC. […] It should be noted that PANC-1, MIA-PaCa-2 and BxPC-3 cell-lines are gemcitabine-resistant cell-lines.
The IC50 was calculated using the following Log (inhibitor) versus Response equation: Y=Bottom+(Top−Bottom)/(1+10^((X-Log IC50))). Representative data and calculated IC50 values using the assay for representative compounds are shown FIGS. 4-7.
For the molecule `CC1(C)O[C@@H]2C[C@H]3[C@@H]4CCC5=CC(=O)C=C[C@]5(C)[C@H]4[C@@H](O)C[C@]3(C)[C@]2(C(=O)CO)O1` [Compound 7, desonide], the inhibition of cell-proliferation entry is listed as “did not show any appreciable inhibition of cell-proliferation”. The same measure for bentiromide [Compound 5]: “did not show any appreciable inhibition of cell-proliferation”.

Consider glimepiride [Compound 8], for which the inhibition of cell-proliferation entry is recorded as “did not show any appreciable inhibition of cell-proliferation”.
